These results are taken from article PMC8478262 (Blood Cancer Discovery, 2021).

Like-named read-outs stand apart in the source and are kept apart here.

One data set concerns HL-60 cells. In words: Antiproliferative effect of staurosporine on HL-60 cells in the presence of AGP. The following applies: until saturating concentrations of drug were used. Type of data set: cell-based.
The subject of a further data set is MOLM-14 cells. The data set is classed as cell-based. The note with it: for increase in IC50 (inhibition) in the presence of 50% human plasma: 50% human plasma vs 10% FBS.
A further data set deals with FLT3. The data set is classed as cell-based.
The next data set relates to Ba/F3-FLT3/ITD-Luc cells. The data set is classed as in vivo, BALB/c mice.
The nature of data set [1]: Human AGP levels and tolerability in mice after intraperitoneal injection. The data set is classed as in vivo. The note with it: 0.3 g/kg i.p.

As for `CN[C@@H]1C[C@H]2O[C@@](C)([C@@H]1OC)n1c3ccccc3c3c4c(c5c6ccccc6n2c5c31)C(=O)NC4` [staurosporine], in the data set with HL-60 cells, the “antiproliferative activity in the presence of AGP” value is reported as “no appreciable activity”.

As to `CCc1nc(C(N)=O)c(Nc2ccc(N3CCC(N4CCN(C)CC4)CC3)c(OC)c2)nc1NC1CCOCC1` [gilteritinib], the “effect of plasma proteins on activity” value in the data set with MOLM-14 cells (50% human plasma or 50 mg/dL AGP, 48 h MTT) was “minimally affected”.

Consider `C[C@]12O[C@H](C[C@]1(O)CO)n1c3ccccc3c3c4c(c5c6ccccc6n2c5c31)CNC4=O` [lestaurtinib], for which the “IC50 in 50% human plasma compared with 10% FBS” value in the data set with MOLM-14 cells (50% human plasma from healthy donors, 48 h) is “IC50s were no longer reached”. Besides, the “increase in IC50 (inhibition) in the presence of 50% human plasma” value in the data set on MOLM-14 cells (48 h MTT) was “greater than 100 fold”. For the same compound, the “activity across a range of AGP concentrations” value with MOLM-14 cells (AGP 31 µg/mL – 2 mg/mL, 48 h MTT) is on record as “appreciable activity is seen only at AGP concentrations less than one tenth of physiologic human levels”. Besides, the “IC50 increase by bovine AGP” value with MOLM-14 cells (bovine AGP adjusted to human-comparable levels) is reported as roughly 5 fold. Moreover, in the data set on FLT3 (10 nmol/L and 100 nmol/L TKI, 50% human plasma), the “FLT3 phosphorylation inhibition in the presence of human plasma” value is on record as “no appreciable FLT3 TKI activity”.

Regarding `CC#C[C@]1(O)CC[C@H]2[C@@H]3CCC4=CC(=O)CCC4=C3[C@@H](c3ccc(N(C)C)cc3)C[C@@]21C` [mifepristone], the “effect of mifepristone alone on cell growth” value in the data set with MOLM-14 cells (at concentrations of maximal effect, no TKI) is “no appreciable effect on cell growth”. The “impact upon TTT-3002 dose–response curves in the absence of AGP” value in the data set on MOLM-14 cells (no AGP) is recorded as “had no impact”. In the data set with FLT3 (mifepristone alone), the “effect alone upon FLT3 autophosphorylation or downstream signaling” value was “no effect”. The “response of transplanted FLT3/ITD cells (bioluminescence day 9)” value in the data set with Ba/F3-FLT3/ITD-Luc cells (midostaurin plus human AGP plus oral mifepristone) is “regression of the transplanted cells comparable with those of the midostaurin alone–treated mice”.

Consider `CO[C@@H]1[C@H](N(C)C(=O)c2ccccc2)C[C@H]2O[C@]1(C)n1c3ccccc3c3c4c(c5c6ccccc6n2c5c31)C(=O)NC4` [midostaurin], for which the “response of transplanted FLT3/ITD cells (bioluminescence day 9)” value is given as “regression of the cells” with Ba/F3-FLT3/ITD-Luc cells (midostaurin alone, oral gavage 4 days) and “progression of the cells comparable with that seen in the control animals” with Ba/F3-FLT3/ITD-Luc cells (midostaurin plus intraperitoneal human AGP).

With `CC(C)(C)c1cc(NC(=O)Nc2ccc(-c3cn4c(n3)sc3cc(OCCN5CCOCC5)ccc34)cc2)no1` [quizartinib], in the data set with MOLM-14 cells (48 h MTT), the “increase in IC50 (inhibition) in the presence of 50% human plasma” value turned out to be 37 fold.

“human AGP: alpha-1-acid glycoprotein purified from human plasma (Sigma), injected i.p. into mice”: the terminal half-life result in data set [1] was “approximately 17 hours”.

Turning to `CNC(=O)c1cc(Oc2ccc(NC(=O)Nc3ccc(Cl)c(C(F)(F)F)c3)cc2)ccn1` [sorafenib], the “increase in IC50 (inhibition) in the presence of 50% human plasma” value in the data set on MOLM-14 cells (48 h MTT) is “greater than 100 fold”.
